For one molecule, IC50 results are on record in ChEMBL document CHEMBL4033665, “Synthesis and applications of benzohydroxamic acid-based histone deacetylase inhibitors” (Eur J Med Chem, 2017).

The target of one test is Histone deacetylase 3 (Homo sapiens, UniProt O15379). The test can be described thus: Inhibition of HDAC3 (unknown origin).
The next test concerns the target Histone deacetylase 1 (Homo sapiens, UniProt Q13547). Description: Inhibition of HDAC1 (unknown origin).

Histone deacetylase 3, sequence (O15379 whole entry): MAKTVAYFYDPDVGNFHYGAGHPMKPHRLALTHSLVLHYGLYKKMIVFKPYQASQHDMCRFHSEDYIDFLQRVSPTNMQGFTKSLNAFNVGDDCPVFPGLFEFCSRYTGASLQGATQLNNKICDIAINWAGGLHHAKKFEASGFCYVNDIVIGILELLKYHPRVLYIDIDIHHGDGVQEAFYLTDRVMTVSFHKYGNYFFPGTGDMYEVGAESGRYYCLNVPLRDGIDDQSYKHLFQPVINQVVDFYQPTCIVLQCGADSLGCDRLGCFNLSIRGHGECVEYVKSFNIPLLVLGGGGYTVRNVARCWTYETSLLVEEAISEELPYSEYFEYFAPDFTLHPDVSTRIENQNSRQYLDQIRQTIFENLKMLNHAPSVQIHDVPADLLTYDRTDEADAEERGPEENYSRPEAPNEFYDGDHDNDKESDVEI
Histone deacetylase 1, sequence (Q13547 whole entry): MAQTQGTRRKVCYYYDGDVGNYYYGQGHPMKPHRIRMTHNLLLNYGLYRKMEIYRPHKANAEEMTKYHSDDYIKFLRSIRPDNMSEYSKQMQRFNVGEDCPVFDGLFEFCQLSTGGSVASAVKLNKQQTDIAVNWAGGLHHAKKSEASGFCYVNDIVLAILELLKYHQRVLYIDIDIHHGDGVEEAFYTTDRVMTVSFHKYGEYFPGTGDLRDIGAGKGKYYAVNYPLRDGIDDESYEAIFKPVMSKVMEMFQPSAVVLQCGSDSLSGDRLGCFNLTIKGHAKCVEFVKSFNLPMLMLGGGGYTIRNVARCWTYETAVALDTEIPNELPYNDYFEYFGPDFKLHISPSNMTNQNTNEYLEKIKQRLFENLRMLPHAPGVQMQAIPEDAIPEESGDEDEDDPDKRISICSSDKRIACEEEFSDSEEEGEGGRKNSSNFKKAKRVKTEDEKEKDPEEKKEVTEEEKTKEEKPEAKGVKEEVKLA

For the molecule `O=C(/C=C/c1cccc(C(=O)NO)c1)NO`, the IC50 at Histone deacetylase 3 was 70 nM; against Histone deacetylase 1 it was 10 nM.
